These results are taken from patent publication US7105483B2, “Phosphinic pseudopeptide derivatives for the selective inhibition of the C-terminal active site of angiotensin I converting enzyme (ACE)” (Commissariat a l'Energie Atomique, priority 2002, dated 2006).

For data set [1], the target named is N-terminal site of human recombinant ACE (Homo sapiens, UniProt P12821). Nature of the data set: Inhibition constants with respect to the N-terminal site of ACE (quenched-fluorescence substrate). Type of data set: biochemical. The settings on record: first HPLC fraction; substrate Mca-Ala-Ser-Asp-Lys-DpaOH; 25° C., pH 6.8, 50 mM HEPES, 10 mM CaCl2, 200 mM NaCl. The source says: (§1) Human recombinant ACE is used for this determination. Curves of inhibition of ACE with pseudopeptides A to G are obtained using the quenched-fluorescence substrate Mca-Ala: Mca-Ala-Ser-Asp-Lys-DpaOH (Mca: […]; DpaOH: N-3-(2,4-dinitrophenyl)-L-2,3-diaminopropionyl).
Sequence of N-terminal site of human recombinant ACE (P12821 30-1306): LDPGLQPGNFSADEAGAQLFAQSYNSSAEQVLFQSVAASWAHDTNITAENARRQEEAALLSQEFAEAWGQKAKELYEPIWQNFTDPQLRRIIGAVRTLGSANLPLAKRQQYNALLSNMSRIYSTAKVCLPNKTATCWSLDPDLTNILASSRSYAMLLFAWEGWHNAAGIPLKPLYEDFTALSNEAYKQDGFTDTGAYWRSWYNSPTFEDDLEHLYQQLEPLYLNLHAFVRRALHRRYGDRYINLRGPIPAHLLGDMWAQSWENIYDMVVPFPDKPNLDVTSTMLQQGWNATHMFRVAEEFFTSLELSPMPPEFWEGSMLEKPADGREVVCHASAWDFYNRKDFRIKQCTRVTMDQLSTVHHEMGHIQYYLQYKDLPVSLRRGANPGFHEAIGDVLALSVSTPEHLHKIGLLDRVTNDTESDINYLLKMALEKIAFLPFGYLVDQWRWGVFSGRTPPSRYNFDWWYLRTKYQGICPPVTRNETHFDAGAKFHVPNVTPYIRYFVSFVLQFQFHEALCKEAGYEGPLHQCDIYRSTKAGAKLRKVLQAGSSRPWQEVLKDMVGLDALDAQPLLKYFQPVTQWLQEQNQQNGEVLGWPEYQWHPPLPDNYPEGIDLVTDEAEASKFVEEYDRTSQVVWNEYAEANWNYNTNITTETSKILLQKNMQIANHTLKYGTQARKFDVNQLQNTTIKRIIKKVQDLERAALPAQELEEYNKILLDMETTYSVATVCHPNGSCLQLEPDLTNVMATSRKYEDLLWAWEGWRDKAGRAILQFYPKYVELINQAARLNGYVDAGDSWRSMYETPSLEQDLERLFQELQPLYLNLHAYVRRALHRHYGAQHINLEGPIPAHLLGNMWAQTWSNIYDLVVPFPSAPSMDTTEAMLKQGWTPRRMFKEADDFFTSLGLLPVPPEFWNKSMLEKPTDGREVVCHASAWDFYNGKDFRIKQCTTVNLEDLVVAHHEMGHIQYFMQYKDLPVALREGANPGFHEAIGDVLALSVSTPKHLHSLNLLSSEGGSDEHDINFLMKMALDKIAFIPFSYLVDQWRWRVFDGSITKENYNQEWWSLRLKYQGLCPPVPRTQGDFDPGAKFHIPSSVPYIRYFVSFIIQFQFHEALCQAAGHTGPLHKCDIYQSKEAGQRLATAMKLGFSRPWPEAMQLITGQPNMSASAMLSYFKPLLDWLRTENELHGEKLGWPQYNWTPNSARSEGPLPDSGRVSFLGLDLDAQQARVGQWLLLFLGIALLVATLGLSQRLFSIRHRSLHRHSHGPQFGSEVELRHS
(§2) The first fraction collected during the purification of each of the pseudopeptides A to G by HPLC (peak 1 of FIG. 2 for pseudopeptide G) is used for these tests.
(§3) From the inhibition profiles obtained with this substrate, for each pseudopeptide A to G, it is possible to determine the constants Ki N and Ki C by following the procedure described by Dive et al..
(§4) The inhibition experiments were performed at 25° C., pH 6.8, 50 mM HEPES, 10 mM, CaCl2, 200 mM NaCl.

The target in data set [2] is C-terminal site of human recombinant ACE (Homo sapiens, UniProt P12821). Nature of the data set: Inhibition constants with respect to the C-terminal site of ACE (quenched-fluorescence substrate). The settings on record: first HPLC fraction; substrate Mca-Ala-Ser-Asp-Lys-DpaOH; 25° C., pH 6.8, 50 mM HEPES, 10 mM CaCl2, 200 mM NaCl. The data set is classed as biochemical.
Sequence of C-terminal site of human recombinant ACE (P12821 30-1306): as above
Source text: as §1, §2, §3, §4

The target in data set [3] is ACE (Homo sapiens, UniProt P12821). Nature of the data set: Inhibitory power of HPLC-isolated diastereoisomers/fractions with respect to ACE. The data set is classed as biochemical. The settings on record: HPLC-isolated diastereoisomer / first fraction (peak 1). The text has this:
In this figure, 4 peaks corresponding to the 4 diastereoisomers present in pseudopeptide G are observed (these 4 peaks have an identical mass spectrum, mass observed MH^+=618.23, expected mass=617.23).

Data set [4] deals with conversion of angiotensin I into angiotensin II. The experiment in a line: In vivo cleavage of angiotensin I to angiotensin II in mice. The settings on record: perfusion over 30 minutes, C57BL6/J mice. As to the method: (§5) This study is performed on batches of male C57BL6/J mice (Iffa Credo) weighing 20 to 23 g each, each batch comprising 6 mice.
(§6) To do this, the mice are anaesthetized by means of an intraperitoneal administration of sodium pentobarbital (Sanofi) at a dose of 80 mg/kg of body weight. The right carotid artery is isolated and a catheter (PE10, 0.28×0.61, A-M Systems, Inc.) is inserted into this artery to allow the withdrawal of blood samples, while another catheter (FEP, 0.12×0.67, Carnegie Medecin) is inserted into the ipsilateral jugular vein to allow the administration of the substances. Throughout the experiment, the body temperature of the mice is maintained at 38° C. […]
(§7) Samples of arterial blood, of about 50 μl, are withdrawn 30, 60 and 90 seconds after injection of the angiotensin I mixture or of the bradykinin mixture to the mice that received these mixtures, and 1, 5, 10 and 15 minutes after the start of injection of the Ac-SDKP mixture to the mice that received the latter mixture. […] The exact amounts of blood withdrawn are determined by reweighing the tubes. […]

Data set [5] deals with cleavage of bradykinin. Nature of the data set: In vivo cleavage (protection) of bradykinin in mice. The settings on record: 10 mg/kg of body weight; protection with perindopril arbitrarily set at 100%; C57BL6/J mice. On the procedure:
as §5, §6, §7

The subject of data set [6] is cleavage of the peptide Ac-SDKP. Nature of the data set: In vivo cleavage of the peptide Ac-SDKP in mice. The settings on record: 10 mg/kg of body weight, versus saline control. As to the method:
as §5, §6, §7

The conditions of data set [7]: rats; cited from earlier work.
For data set [8] the following is noted: mice; cited from earlier work.
Data set [9] concerns degradation of the peptide N-acetyl Ser-Asp-Lys-Pro (Ac-SDKP). The settings on record: mice, reference [9]; cited from earlier work.

Read-outs that look alike come from different tables or passages of the source.

Sequence of ACE (P12821 30-1306): as above

As to `CC(NC(=O)CCP(=O)(O)C(Cc1ccccc1)NC(=O)OCc1ccccc1)C(=O)O` (centres unmarked) [Pseudopeptide A, reference compound], the Ki in data set [1] and in data set [2] was 0.8 nM each time.
Regarding `CC(NC(=O)C1CCCC1P(=O)(O)C(Cc1ccccc1)NC(=O)OCc1ccccc1)C(=O)O` (centres unmarked) [Pseudopeptide B], the Ki was 450 nM in [1] and 20 nM in data set [2]. In addition, in data set [3], the “inhibitory power with respect to ACE” value is “capable of inhibiting ACE”.
`O=C(NC(Cc1ccccc1)P(=O)(O)C1CCCC1C(=O)N1CCCC1C(=O)O)OCc1ccccc1` (centres unmarked) [Pseudopeptide C]: the figures for the Ki in [1] and in data set [2] were 60 nM and 4 nM, respectively. In data set [3], the “inhibitory power with respect to ACE” value is “capable of inhibiting ACE”.
Turning to `N=C(N)NCCCC(NC(=O)C1CCCC1P(=O)(O)C(Cc1ccccc1)NC(=O)OCc1ccccc1)C(=O)O` (centres unmarked) [Pseudopeptide D], the Ki in data set [1] is 200 nM; in data set [2], 9 nM. Besides, the “inhibitory power with respect to ACE” value in data set [3] is given as “capable of inhibiting ACE”.
The matching figures for `CC(NC(=O)OCc1ccccc1)P(=O)(O)C1CCCC1C(=O)NC(CCCc1c[nH]c2ccccc12)C(=O)O` (centres unmarked) [Pseudopeptide E]: 8000 nM, 60 nM and “capable of inhibiting ACE”.
Turning to `O=C(NC(CCc1ccccc1)P(=O)(O)C1CCCC1C(=O)NC(CCCc1c[nH]c2ccccc12)C(=O)O)OCc1ccccc1` (centres unmarked) [Pseudopeptide F], the Ki is 8000 nM in data set [1] and 60 nM in data set [2]. For the same compound, the “inhibitory power with respect to ACE” value in data set [3] is “capable of inhibiting ACE”.
In the case of `O=C(NC(Cc1ccccc1)P(=O)(O)C1CCCC1C(=O)NC(Cc1c[nH]c2ccccc12)C(=O)O)OCc1ccccc1` (centres unmarked) [Pseudopeptide G], the figures for the Ki in data set [1] and in data set [2] were 10000 nM and 3 nM, respectively. The “reduction of the angiotensin II/angiotensin I ratio measured in the control mice” value worked out at 50% in data set [4] (0.9 mg/kg of body weight) and 90% in [4] (30 mg/kg of body weight). In data set [5], the “degree of protection of bradykinin” value turned out to be 9.2%. In addition, the “effect on the cleavage of the peptide Ac-SDKP” value in data set [6] (C57BL6/J mice) is “no significant effect”. The “inhibitory power with respect to ACE” value in [3] was “shows inhibitory power”.
With `CC(=O)N[C@@H](CC(=O)O)C(=O)N[C@@H](Cc1ccccc1)P(=O)(O)C[C@@H](C)C(=O)N[C@@H](C)C(N)=O` [RXP407], in data set [6] (mice), the “increase of the plasmatic content of Ac-SDKP relative to control mice” value came out at 16 fold. The metabolism in vivo entry in data set [7] and in [8] was “not metabolized” each time. The “inhibition of the degradation of Ac-SDKP in vivo” value in data set [9] is listed as “capable of inhibiting the degradation”.
For the compound `CCC[C@H](N[C@@H](C)C(=O)N1[C@H](C(=O)O)C[C@@H]2CCCC[C@@H]21)C(=O)OCC` [perindopril, reference compound], the “degree of protection of bradykinin” value in data set [5] worked out at 100%.

For orientation: Ki means a measure of affinity in units of concentration, obtained from inhibition or displacement.
